Drawing on patent US7687515B2, “6-phenyl-1H-imidazo[4,5-c]pyridine-4-carbonitrile derivatives” (priority 2006, dated 2010), this text covers IC50 for twelve compounds.

For orientation: IC50 means the point on the concentration scale where inhibition reaches its midpoint.

Sequence of recombinant human Cathepsin S (P25774 115-331): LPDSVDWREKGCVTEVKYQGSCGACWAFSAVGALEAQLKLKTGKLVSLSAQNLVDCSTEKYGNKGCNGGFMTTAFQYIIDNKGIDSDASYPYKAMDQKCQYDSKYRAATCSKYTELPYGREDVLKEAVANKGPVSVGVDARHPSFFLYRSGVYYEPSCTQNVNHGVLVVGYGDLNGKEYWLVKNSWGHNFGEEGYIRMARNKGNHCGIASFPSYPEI

This assay has as its target recombinant human Cathepsin S (Homo sapiens, UniProt P25774). Briefly: Cathepsin S assay: inhibition of recombinant human Cathepsin S (Z-Val-Val-Arg-AMC fluorescence). The assay is classed as biochemical. On the procedure:
Cathepsin S Assay Procedure
25 μl of a 2 mg/l solution of activated recombinant human cathepsin S, in assay buffer, is then added to the well, yielding a final inhibitor concentration of 10 μM.
Enzyme activity is determined by measuring the fluorescence of the liberated aminomethylcoumarin at […] using 390 nm excitation, at 20 minutes. Percentage enzyme activity is calculated by comparison of this activity to that of a solution containing no inhibitor.
As for `CCOc1ccc(-c2cc3[nH]c(CN4CCN(C)CC4)nc3c(C#N)n2)cc1C(F)(F)F` [Example 11a, 6-(4-Ethoxy-3-trifluoromethyl-phenyl)-2-(4-methyl-piperazin-1-ylmethyl)-1H-imidazo-[4,5-c]pyridine-4-carbonitrile], the IC50 is less than 100 nM.
Consider `CCOc1ccc(-c2cc3[nH]c(CN4CNC(=O)C4)nc3c(C#N)n2)cc1C(F)(F)F` [Example 13d, 6-(4-Ethoxy-3-trifluoromethyl-phenyl)-2-(4-oxo-imidazolidin-1-ylmethyl)-1H-imidazo[4,5-c]pyridine-4-carbonitrile], for which the IC50 was less than 100 nM.
To `CCOc1ccc(-c2cc3[nH]c(CN4CCNC(=O)C4)nc3c(C#N)n2)cc1C(F)(F)F` [Example 5d, 6-(4-Ethoxy-3-trifluoromethyl-phenyl)-2-(3-oxo-piperazine-1-ylmethyl)-1H-imidazo[4,5,c]pyridine-4-carbonitrile] belongs less than 100 nM; to `CCOc1ccc(-c2cc3c(ncn3CCCN3CCOCC3)c(C#N)n2)cc1C(F)(F)F` [Example 10a, 6-(4-Ethoxy-3-trifluoromethyl-phenyl)-1-(3-morpholin-4-yl-propyl)-1H-imidazo[4,5-c]pyridine-4-carbonitrile], less than 100 nM; to `CCOc1ccc(-c2cc3[nH]c(CN4CCN(CCOC)CC4)nc3c(C#N)n2)cc1C(F)(F)F` [Example 13i, 6-(4-Ethoxy-3-trifluoromethyl-phenyl)-2-[4-(2-methoxy-ethyl)-piperazin-1-yl-methyl]-1H-imidazo[4,5-c]pyridine-4-carbonitrile], less than 100 nM.
For `CCOc1ccc(-c2cc3c(ncn3CCN3CCOCC3)c(C#N)n2)cc1C(F)(F)F` [Example 9a, 6-(4-Ethoxy-3-trifluoromethyl-phenyl)-1-(2-morpholin-4-yl-ethyl)-1H-imidazo[4,5-c]pyridine-4-carbonitrile] the value was less than 100 nM.
For `CCOc1ccc(-c2cc3[nH]cnc3c(C#N)n2)cc1C(F)(F)F` [Example 1, 6-(4-Ethoxy-3-trifluoromethyl-phenyl)-1H-imidazo[4.5-c]pyridine-4-carbonitrile] the value was less than 100 nM; for `CCOc1ccc(-c2cc3[nH]c(CNCCO)nc3c(C#N)n2)cc1C(F)(F)F` [Example 11h, 6-(4-Ethoxy-3-trifluoromethyl-phenyl)-2-[(2-hydroxy-ethylamino)-methyl]-1H-imidazo[4,5-c]pyridine-4-carbonitrile], less than 100 nM.
In the case of `CCOc1ccc(-c2cc3c(ncn3CCN(C)C)c(C#N)n2)cc1C(F)(F)F` [Example 9f, 1-(2-Dimethylamino-ethyl)-6-(4-ethoxy-3-trifluoromethyl-phenyl)-1H-imidazo [4,5-c]pyridine-4-carbonitrile], the IC50 is less than 100 nM.
To `CCOc1ccc(-c2cc3c(ncn3CCN3CCCCC3)c(C#N)n2)cc1C(F)(F)F` [Example 9d, 6-(4-Ethoxy-3-trifluoromethyl-phenyl)-1-(2-piperidin-1-yl-ethyl)-1H-imidazo[4,5-c]-pyridine-4-carbonitrile] belongs less than 100 nM; to `CCOc1ccc(-c2cc3c(ncn3CCCN(C)C)c(C#N)n2)cc1C(F)(F)F` [Example 10f, 1-(3-Dimethylamino-propyl)-6-(4-ethoxy-3-trifluoromethyl-phenyl)-1H-imidazo-[4,5-c]pyridine-4-carbonitrile], less than 100 nM; to `CCOc1ccc(-c2cc3c(ncn3CC(=O)O)c(C#N)n2)cc1C(F)(F)F` [Example 3, [4-Cyano-6-(4-ethoxy-3-trifluoromethyl-phenyl)-imidazo[4,5-c]pyridin-1-yl]-acetic acid], less than 100 nM.
